Common to all, as to format: functional
Experiment [1] has as its system Staphylococcus epidermidis. The experiment in a line: Minimum inhibitory concentration (MIC) against Staphylococcus epidermidis 178. The following applies: Staphylococcus epidermidis; read-out: MIC.
Experiment [2] concerns Staphylococcus aureus. The experiment in a line: Minimum inhibitory concentration (MIC) against Staphylococcus aureus 241. Particulars: Staphylococcus aureus; read-out: MIC.
The test system of another experiment is Pseudomonas aeruginosa. The experiment in a line: Minimum inhibitory concentration (MIC) against Pseudomonas aeruginosa 1912E. Particulars: Pseudomonas aeruginosa; read-out: MIC.
Experiment [3] concerns Escherichia coli. In words: Minimum inhibitory concentration (MIC) against Escherichia coli TEM9 2639E. Particulars: Escherichia coli; read-out: MIC.
The subject of experiment [4] is Staphylococcus epidermidis. The experiment in a line: Minimum inhibitory concentration (MIC) against Staphylococcus epidermidis 887E.
A further experiment relates to Enterococcus faecalis. In words: Minimum inhibitory concentration (MIC) against Streptococcus faecalis 29212. The following applies: Enterococcus faecalis; read-out: MIC.
Experiment [5] has as its system Escherichia coli. In words: Minimum inhibitory concentration (MIC) against Escherichia coli 3190Y.
For the next experiment, the system named is Klebsiella aerogenes. In words: Minimum inhibitory concentration (MIC) against Klebsiella aerogenes 1082E. Particulars: Klebsiella aerogenes; read-out: MIC.
In experiment [6] the test system is Staphylococcus aureus. In words: Minimum inhibitory concentration (MIC) against Staphylococcus aureus 6538p.
Experiment [7] relates to Acinetobacter calcoaceticus. The experiment in a line: Minimum inhibitory concentration (MIC) against Acinetobacter calcoaceticus 15473. Particulars: Acinetobacter calcoaceticus; read-out: MIC.
Experiment [8] relates to Escherichia coli. The experiment in a line: Minimum inhibitory concentration (MIC) against Escherichia coli 10536.
The test system of a further experiment is Enterobacter cloacae. The experiment in a line: Minimum inhibitory concentration (MIC) against Enterobacter cloacae P99.
The test system of experiment [9] is Staphylococcus aureus. In words: Minimum inhibitory concentration (MIC) against Staphylococcus aureus giorgio.
In the next experiment the test system is Bacillus subtilis. In words: Minimum inhibitory concentration (MIC) against Bacillus subtilis ATCC 6633.

MIC data for seven compounds are collected here from ChEMBL document CHEMBL1130203, “Novel fluoroquinolone antibacterial agents containing oxime-substituted (aminomethyl)pyrrolidines: synthesis and antibacterial activity of 7-(4-(aminomethyl)-3-(methoxyimino)pyrrolidin-1-yl)-1-cyclopropyl-6- fluoro-4-oxo-1,4-dihydro[1,8]naphthyridine-3-carboxylic acid (LB20304)” (J Med Chem, 1997).

Values after ≈ are worked out from the molar mass of the structure shown.

In the case of `CC(C)O/N=C1\CN(c2nc3c(cc2F)c(=O)c(C(=O)O)cn3C2CC2)CC1CN` (stereo not drawn), the minimal inhibitory concentration (MIC) (usually the lowest concentration found to suppress growth) is 1 µg/mL (≈ 2.4 µM) in [1]; 2 µg/mL (≈ 4.79 µM) in the experiment with Staphylococcus aureus [2]; 1 µg/mL (≈ 2.4 µM) with Pseudomonas aeruginosa; 0.063 µg/mL (≈ 0.151 µM) in the experiment with Escherichia coli [3]; below 0.008 µg/mL in experiment [4]; 0.063 µg/mL (≈ 0.151 µM) in the experiment on Enterococcus faecalis. Besides, the minimum inhibitory concentration (MIC) against Escherichia coli [5] is below 0.008 µg/mL; in the experiment with Klebsiella aerogenes it was 0.13 µg/mL (≈ 0.311 µM); with Staphylococcus aureus [6], below 0.008 µg/mL; in [7], 0.031 µg/mL (≈ 0.0743 µM); in the experiment with Escherichia coli [8], below 0.008 µg/mL; with Enterobacter cloacae, below 0.008 µg/mL. The MIC against Staphylococcus aureus [9] and against Bacillus subtilis was below 0.008 µg/mL throughout.

Turning to `NCC1CN(c2nc3c(cc2F)c(=O)c(C(=O)O)cn3C2CC2)C/C1=N\Oc1ccccc1` (stereo not drawn), the minimal inhibitory concentration (MIC) in [1] was 16 µg/mL (≈ 35.4 µM); with Staphylococcus aureus [2] it was below 0.008 µg/mL; in the experiment with Pseudomonas aeruginosa it was 2 µg/mL (≈ 4.43 µM); in the experiment with Escherichia coli [3] it was 0.13 µg/mL (≈ 0.288 µM); in [4], below 0.008 µg/mL; in the experiment with Enterococcus faecalis, 0.13 µg/mL (≈ 0.288 µM). The MIC in the experiment with Escherichia coli [5] was 0.016 µg/mL (≈ 0.0354 µM); in the experiment with Klebsiella aerogenes it was 0.13 µg/mL (≈ 0.288 µM); against Staphylococcus aureus [6], 0.016 µg/mL (≈ 0.0354 µM); in [7] it was 0.016 µg/mL (≈ 0.0354 µM); against Escherichia coli [8], 0.031 µg/mL (≈ 0.0687 µM); against Enterobacter cloacae, 0.031 µg/mL (≈ 0.0687 µM). The MIC against Staphylococcus aureus [9] is 0.016 µg/mL (≈ 0.0354 µM); in the experiment on Bacillus subtilis, below 0.008 µg/mL.

For `CO/N=C1\CN(c2c(F)cc3c(=O)c(C(=O)O)cn(C4CC4)c3c2OC)CC1CN` (stereo not drawn), the minimal inhibitory concentration (MIC) amounted to 1 µg/mL (≈ 2.39 µM) in [1]; 1 µg/mL (≈ 2.39 µM) in the experiment on Staphylococcus aureus [2]; 2 µg/mL (≈ 4.78 µM) with Pseudomonas aeruginosa; 0.25 µg/mL (≈ 0.597 µM) in the experiment with Escherichia coli [3]; 0.031 µg/mL (≈ 0.0741 µM) in experiment [4]; 0.063 µg/mL (≈ 0.151 µM) in the experiment on Enterococcus faecalis. Moreover, the minimal inhibitory concentration (MIC) in the experiment on Escherichia coli [5] was 0.031 µg/mL (≈ 0.0741 µM); with Klebsiella aerogenes it was 0.25 µg/mL (≈ 0.597 µM); against Staphylococcus aureus [6], 0.031 µg/mL (≈ 0.0741 µM); in experiment [7], 0.25 µg/mL (≈ 0.597 µM); in the experiment with Escherichia coli [8], 0.063 µg/mL (≈ 0.151 µM); against Enterobacter cloacae, 0.063 µg/mL (≈ 0.151 µM). The results for the MIC in the experiment with Staphylococcus aureus [9] and in the experiment on Bacillus subtilis were 0.016 µg/mL (≈ 0.0382 µM) and 0.031 µg/mL (≈ 0.0741 µM), respectively.

As to `CO/N=C1\CN(c2nc3c(cc2F)c(=O)c(C(=O)O)cn3C2CC2)CC1CN(C)C` (stereo not drawn), the minimum inhibitory concentration (MIC) was 16 µg/mL (≈ 38.3 µM) in [1]; 32 µg/mL (≈ 76.7 µM) in the experiment on Staphylococcus aureus [2]; 16 µg/mL (≈ 38.3 µM) in the experiment on Pseudomonas aeruginosa; 1 µg/mL (≈ 2.4 µM) with Escherichia coli [3]; 0.13 µg/mL (≈ 0.311 µM) in experiment [4]; 1 µg/mL (≈ 2.4 µM) in the experiment on Enterococcus faecalis. Also, the MIC in the experiment with Escherichia coli [5] is 0.063 µg/mL (≈ 0.151 µM); with Klebsiella aerogenes, 0.016 µg/mL (≈ 0.0383 µM); in the experiment on Staphylococcus aureus [6] it was 0.13 µg/mL (≈ 0.311 µM); in experiment [7], 0.5 µg/mL (≈ 1.2 µM); against Escherichia coli [8], 0.13 µg/mL (≈ 0.311 µM); in the experiment on Enterobacter cloacae, 0.13 µg/mL (≈ 0.311 µM). In addition, the figures for the MIC against Staphylococcus aureus [9] and with Bacillus subtilis were 0.13 µg/mL (≈ 0.311 µM) and 0.016 µg/mL (≈ 0.0383 µM), respectively.

As to `CC(C)(C)O/N=C1\CN(c2nc3c(cc2F)c(=O)c(C(=O)O)cn3C2CC2)CC1CN` (stereo not drawn), the MIC in experiment [1] is 1 µg/mL (≈ 2.32 µM); in the experiment on Staphylococcus aureus [2], 1 µg/mL (≈ 2.32 µM); in the experiment with Pseudomonas aeruginosa it was 2 µg/mL (≈ 4.64 µM); in the experiment on Escherichia coli [3], 0.063 µg/mL (≈ 0.146 µM); in [4], below 0.008 µg/mL; in the experiment with Enterococcus faecalis it was 0.063 µg/mL (≈ 0.146 µM). In addition, the minimal inhibitory concentration (MIC) was 0.016 µg/mL (≈ 0.0371 µM) against Escherichia coli [5]; 0.25 µg/mL (≈ 0.579 µM) in the experiment on Klebsiella aerogenes; 0.008 µg/mL (≈ 0.0185 µM) in the experiment on Staphylococcus aureus [6]; 0.031 µg/mL (≈ 0.0718 µM) in experiment [7]; at most 0.008 µg/mL against Escherichia coli [8]; at most 0.008 µg/mL in the experiment with Enterobacter cloacae. For the same compound, the minimum inhibitory concentration (MIC) in the experiment on Staphylococcus aureus [9] and with Bacillus subtilis was below 0.008 µg/mL in each case.

On to `NCC1CN(c2nc3c(cc2F)c(=O)c(C(=O)O)cn3C2CC2)C/C1=N\OCc1ccccc1` (stereo not drawn), for which the minimal inhibitory concentration (MIC) in experiment [1] was 2 µg/mL (≈ 4.3 µM); in the experiment with Staphylococcus aureus [2], 2 µg/mL (≈ 4.3 µM); in the experiment with Pseudomonas aeruginosa, 1 µg/mL (≈ 2.15 µM); in the experiment on Escherichia coli [3], 0.063 µg/mL (≈ 0.135 µM); in [4] it was below 0.008 µg/mL; in the experiment on Enterococcus faecalis, 0.031 µg/mL (≈ 0.0666 µM). Besides, the MIC in the experiment with Escherichia coli [5] was below 0.008 µg/mL; with Klebsiella aerogenes it was 0.063 µg/mL (≈ 0.135 µM); against Staphylococcus aureus [6] it was below 0.008 µg/mL; in [7] it was below 0.008 µg/mL; in the experiment on Escherichia coli [8] it was below 0.008 µg/mL; against Enterobacter cloacae, below 0.008 µg/mL. Besides, the MIC in the experiment with Staphylococcus aureus [9] and in the experiment on Bacillus subtilis was below 0.008 µg/mL each time.

Take `CCn1cc(C(=O)O)c(=O)c2cc(F)c(N3C/C(=N\OC)C(CN)C3)c(F)c21` (stereo not drawn): the MIC in experiment [1] came out at 4 µg/mL (≈ 10.1 µM); with Staphylococcus aureus [2], 4 µg/mL (≈ 10.1 µM); with Pseudomonas aeruginosa it was 2 µg/mL (≈ 5.07 µM); in the experiment with Escherichia coli [3] it was 0.5 µg/mL (≈ 1.27 µM); in [4] it was 0.063 µg/mL (≈ 0.16 µM); with Enterococcus faecalis, 0.25 µg/mL (≈ 0.634 µM). Also, the MIC in the experiment with Escherichia coli [5] is 0.063 µg/mL (≈ 0.16 µM); in the experiment with Klebsiella aerogenes it was 0.5 µg/mL (≈ 1.27 µM); against Staphylococcus aureus [6], 0.031 µg/mL (≈ 0.0786 µM); in experiment [7], 1 µg/mL (≈ 2.54 µM); in the experiment on Escherichia coli [8], 0.063 µg/mL (≈ 0.16 µM); in the experiment with Enterobacter cloacae, 0.13 µg/mL (≈ 0.33 µM). The minimum inhibitory concentration (MIC) with Staphylococcus aureus [9] amounted to 0.063 µg/mL (≈ 0.16 µM); against Bacillus subtilis, 0.031 µg/mL (≈ 0.0786 µM).
